According to patent US12528795B2, “Crystal form of multi-substituted benzene ring compound maleate, and preparation method therefor and use thereof” (EVOPOINT BIOSCIENCES CO., LTD., priority 2020, dated 2026):
In brackets after ≈: the same amount, converted by molar mass. Entries after “also recorded” stand apart in the source; their conditions may differ. Read-outs that look alike come from different tables or passages of the source. Values belong to the compound of their own block, whether it stands above or below them.

What was measured:
Assay type in all cases: physicochemical
[1] = Suspension competition experiments on anhydrous crystal forms A and B of maleate (XRPD); settings: for Results (crystal form by XRPD after suspension competition): 3 days
Experimental: Suspention competition experiments on anhydrous crystal forms A and B of maleate were conducted as follows: Four 5-mL vials were taken, IPA (2 mL) and IPAc (2 mL) were added to each vial, and excessive crystal form B of maleate was added. The mixtures were stirred at room temperature/50° C. for 24 h, and then filtered to obtain saturated solutions of the maleate in IPA and IPAc. About 10 mg of a crystal form A/B of maleate was added to each saturated solution, the mixtures were suspended and stirred at room temperature/50° C. for 3 days, and then subjected to the XRPD test.

[2] = Crystal form transformation on heating, cooling or drying
Experimental: The obtained sample was determined to be a crystal form E of maleate of the multi-substituted benzene ring compound of formula II by X-ray powder diffraction.

[3] = Hygroscopicity by dynamic vapor sorption (DVS); settings: for Crystal form after DVS test: XRPD after DVS 0% RH-95% RH-0% RH, 25° C.
Experimental: Dynamic vapor sorption (DVS) curves were acquired on a DVS Intrinsic in Surface Measurement Systems (SMS). The relative humidity at 25° C. was corrected with the deliquescence points of LiCl, Mg(NO3)2 and KCl.
After the mass change rate over time was less than 0.002%, the moisture absorption characteristics of the samples when the humidity changed from 0% RH to 95% RH were tested, as well as the moisture desorption characteristics of the samples when the humidity changed from 0% RH to 95% RH to 0% RH were tested, and the humidity change step was 10% RH. The value of the mass change rate dm/dt less than 0.002% was considered as balance equilibration, the mass change rate within 10 min less than 0.002%/min was considered as the equilibration standard during the testing process, and the maximum equilibration time was 3 h. The isothermal moisture sorption/desorption characteristics under this test condition were determined and XRPD test was performed on the samples after the DVS test.

[4] = Dynamic solubility in SGF, FaSSIF, FeSSIF and water at 37° C.; settings: thermodynamic from solid, sampling at 1, 2, 4 and 24 h, time point of the value not stated
Experimental: (§1) The purity and solubility of the samples in the test were tested by Waters ultra performance liquid chromatograph, and the conditions are shown in Table 6:
In the test, 45 mg of the solid and 4.5 mL of the vehicle were mixed in a 5 mL centrifuge tube, then the centrifuge tube was sealed and fixed on a rotating disk at a rotating speed of 40 rpm, and the rotating disk was placed in a 37° C. incubator. Sampling was performed at four time points of 1, 2, 4 and 24 h on equilibration, followed by filtration. The filtrate was separated at each sampling time point to test the concentration and pH, and the solid was tested for crystal form.

[5] = Suspension competition experiments on crystal form A and hydrate crystal forms C and D of maleate at different water activities (XRPD); settings: room temperature, 3.5 h
[6] = as above; settings: for Result (crystal form by XRPD after suspension competition): H2O
Experimental: The mixtures were stirred at room temperature for 24 h, and then filtered to obtain saturated solutions. About 10 mg of a crystal form A/C/D of maleate was added to each saturated solution, the mixtures were suspended and stirred at room temperature for 2 days, and then subjected to the XRPD test. Two 5-mL vials were taken, water (2 mL) was added to each vial, and excessive crystal form B of maleate was added. The mixtures were stirred at 50° C./80° C. for 20 h/2 h, and then filtered to obtain saturated solutions. About 10 mg of the crystal form A/C/D of maleate was added to each saturated solution, and the mixtures were suspended and stirred at 50° C./80° C. for 1 day/3.5 h, and then subjected to the XRPD test.

[7] = Fluidity (angle of repose of a single API); settings: D90 controlled at 200 μm
[8] = Physical and chemical stability in open vials (HPLC purity, XRPD); settings: for Crystal form change: XRPD; for Stability sample purity (area percentage): initial purity 98.86
Experimental: as §1
The solid samples placed under different conditions were tested for purity by HPLC to assess the chemical stability and for crystal form by XRPD to assess the physical stability.

[9] = FaSSIF, FaSSIF, read-out: Dynamic solubility in FaSSIF
[10] = FeSSIF, FeSSIF, read-out: Dynamic solubility in FeSSIF
[11] = water, water, read-out: Dynamic solubility in water
[12] = SGF, simulated gastric fluid, SGF, read-out: Dynamic solubility in SGF
[13] = open vial, 25° C./60% RH, one week
[14] = open vial, 40° C./75% RH, one week

Results (crystal form by XRPD after suspension competition) ([1]; IPA, 50° C.): Crystal form A of maleate
Results (crystal form by XRPD after suspension competition) ([1]; IPA, room temperature): Crystal form A of maleate
Results (crystal form by XRPD after suspension competition) ([1]; IPAc, 50° C.): Crystal form A of maleate
Results (crystal form by XRPD after suspension competition) ([1]; IPAc, room temperature): Crystal form A of maleate
Structure (SMILES): CCN(c1cc(O[C@H]2C[C@H](N3CCCCC3)C2)cc(C(=O)NCc2c(C)cc(C)[nH]c2=O)c1C)C1CCOCC1.O=C(O)/C=C\C(=O)O [Crystal form A/B of maleate]

Structure (SMILES): CCN(c1cc(O[C@H]2C[C@H](N3CCCCC3)C2)cc(C(=O)NCc2c(C)cc(C)[nH]c2=O)c1C)C1CCOCC1.O=C(O)/C=C\C(=O)O [Crystal form E of maleate]
Crystal form transformation after cooling to room temperature ([2]; form obtained only at high temperature, then cooled to room temperature): retransformed into the crystal form A of maleate

DVS vapor sorption (25° C./80% RH, %) [3]: 5.2%
solubility [4, 9]: 1390 µg/mL
solubility [4, 10]: 5330 µg/mL
solubility [4, 11]: 4260 µg/mL
Structure (SMILES): Br.CCN(c1cc(O[C@H]2C[C@H](N3CCCCC3)C2)cc(C(=O)NCc2c(C)cc(C)[nH]c2=O)c1C)C1CCOCC1 [Crystal form A of hydrobromide]

Result (crystal form by XRPD after suspension competition) ([5]; EtOH): Crystal form A of maleate
Result (crystal form by XRPD after suspension competition) ([5]; EtOH/H2O (70:30, aw = 0.8)): Crystal form C of maleate
Result (crystal form by XRPD after suspension competition) ([5]; EtOH/H2O (82:18, aw = 0.6)): Crystal form C of maleate
Result (crystal form by XRPD after suspension competition) ([5]; EtOH/H2O (91:9, aw = 0.4)): Crystal form C of maleate
Result (crystal form by XRPD after suspension competition) ([5]; EtOH/H2O (96:4, aw = 0.2)): Crystal form A of maleate
Result (crystal form by XRPD after suspension competition) ([5]; H2O): Crystal form C of maleate
Result (crystal form by XRPD after suspension competition) ([6]; 50° C., 1 day): Crystal form C of maleate
Result (crystal form by XRPD after suspension competition) ([6]; 80° C., 3.5 h): Crystal form C of maleate
Structure (SMILES): CCN(c1cc(O[C@H]2C[C@H](N3CCCCC3)C2)cc(C(=O)NCc2c(C)cc(C)[nH]c2=O)c1C)C1CCOCC1.O=C(O)/C=C\C(=O)O [Crystal form A/C/D of maleate]

Crystal form transformation by suspending and stirring ([6]; ethanol solution with a water activity of 0.2 or absolute ethanol, room temperature): transformed into the crystal form A
Crystal form transformation after drying ([2]; dried at 170° C.): transformed into the crystal form A
Structure (SMILES): CCN(c1cc(O[C@H]2C[C@H](N3CCCCC3)C2)cc(C(=O)NCc2c(C)cc(C)[nH]c2=O)c1C)C1CCOCC1.O=C(O)/C=C\C(=O)O [Crystal form C of maleate]

DVS vapor sorption (25° C./80% RH, %) [3]: 1.3%
solubility [4, 9]: 420 µg/mL (≈ 763 µM)
solubility [4, 10]: > 7350 µg/mL
solubility [4, 12]: 6980 µg/mL (≈ 12700 µM)
solubility [4, 11]: 16 µg/mL (≈ 29.1 µM)
Structure (SMILES): CCN(c1cc(O[C@H]2C[C@H](N3CCCCC3)C2)cc(C(=O)NCc2c(C)cc(C)[nH]c2=O)c1C)C1CCOCC1 [Free crystal form D]

DVS vapor sorption (25° C./80% RH, %) [3]: 2.1%
solubility [4, 9]: 5390 µg/mL
solubility [4, 10]: > 7350 µg/mL
solubility [4, 12]: ≥ 6000 µg/mL
solubility [4, 11]: > 8440 µg/mL
Structure (SMILES): CCN(c1cc(O[C@H]2C[C@H](N3CCCCC3)C2)cc(C(=O)NCc2c(C)cc(C)[nH]c2=O)c1C)C1CCOCC1.O=C(O)CCC(=O)O [Crystal form A of succinate]

DVS vapor sorption (25° C./80% RH, %) [3]: 0.4%
Crystal form after DVS test [3]: Unchanged
Relative stability of crystal forms A and B of maleate ([1]; room temperature/50° C.): more stable than the crystal form B
solubility [4, 9]: 4150 µg/mL
solubility [4, 10]: > 7350 µg/mL
solubility [4, 12]: ≥ 6000 µg/mL
solubility [4, 11]: 6990 µg/mL
Angle of repose of a single API [7]: about 40 °
Angle of repose of a single API ([7]; as printed in b231): about 400
Initial purity (area percentage) ([8]; before storage): 98.86 area percentage
Crystal form change [8, 13]: Unchanged
Stability sample purity (area percentage) [8, 13]: 98.79 area percentage
Crystal form change [8, 14]: Unchanged
Stability sample purity (area percentage) [8, 14]: 98.79 area percentage
Crystal form change ([8]; open vial, 60° C., 24 h): Unchanged
Stability sample purity (area percentage) ([8]; open vial, 60° C., 24 h): 98.79 area percentage
Structure (SMILES): CCN(c1cc(O[C@H]2C[C@H](N3CCCCC3)C2)cc(C(=O)NCc2c(C)cc(C)[nH]c2=O)c1C)C1CCOCC1.O=C(O)/C=C\C(=O)O [Crystal form A of maleate]
Crystal form after DVS test ([3]; listed as crystal form A of maleate): crystal form transformation did not occur
Stability ranking among the 5 crystal forms of maleate ([6]; conclusion from the examples and suspension competition experiments): most stable among the 5 crystal forms of maleate
Physical and chemical stability under three test conditions ([8]; open vial, 60° C. one day, 25° C./60% RH and 40° C./75% RH one week): did not undergo crystal form transformation and chemical purity decrease; also recorded: no crystal form transformation and chemical purity decrease
